Measured values as given in patent US20050145258A1, “Composition, Method and Device for Blood Supply Fluctuation Therapy” (priority 2004, published 2005).

Tests used:
liver cancer = assay type: in vivo, human
Method: The inlet tube member 2 was connected to gas resource of gaseous CO2. 500 ml of the gaseous CO2 was introduced into storing bag for cleaning the air within the storing bag and delivery system. T Stopcock 1 in inlet tube member 2 was turned off to stop the gas into storing bag temporally. The gaseous CO2 in storing bag 3 was aspirated into syringe 6, then impelled by the syringe 6. Due to the function of check valve, during the aspirating of syringe, the first check valve 5 was open; meanwhile the second and third check valves were closed automatically. The gas in the storing bag was aspirated into syringe 6. During the impelling of syringe, the first check valve was closed and the second and third check valves were open automatically. The gaseous CO2 in the syringe is impelled out of the delivery device through the outlet of the third three-way stopcock. Repeating syringe aspirating and impelling until all gas in the storing bag was emptied, and the air within storing bag and delivery device was cleaned. After that, the stopcock on the inlet tubular member was turned on again to introduce the gaseous CO2 from the gas resource into storing bag 3 to fill the storing bag (2000 ml), then the stopcock 1 was turned off to stop gaseous CO2 introduction. The gaseous CO2 and delivery system was ready for use. […] The delivery catheter 13 was connected to the outlet of the third three-way stopcock of the delivery system, and the air within the catheter 13 was removed. Using the gaseous CO2 as contrast medium, 50 ml gaseous CO2 at rate of 10 ml/second was injected by syringe 6 into the hepatic artery to perform a diagnostic DSA. The diagnostic DSA was used to identify the location, size of tumor, arteries supplying blood to liver cancer, blood flow within tumor tissue and time gaseous CO2 staying in tumor vessels. All those information was necessary to doctor to select an optimal protocol of Blood Supply Fluctuation Therapy (BSFT). Then, the angiographic catheter was advanced into the artery supplying blood flow to the liver cancer. […] Blood Supply Fluctuation Therapy (BSFT) with Gaseous CO2: gaseous CO2 was injected slowly by the delivery syringe 6 through the catheter 13 into the tumor vasculature. […] The gas displaces the blood flow within the tumor vessels partially or entirely depending on the injection rate and lasting time. With increasing of the gaseous mixture, the blood supply to the liver cancer was decreased, even stopped. Because tumor vasculature was immature, “vapor lock” in tumor vasculature was produced by the gaseous CO2. With decreasing and stopping of the blood flow of tumor vasculature, the gaseous CO2 injected through delivery catheter might overflow into the arteries supplying normal liver tissue that could be detected and monitored by X-ray fluoroscopy, DSA, CT or ultrasound imaging. Because the gaseous CO2 was absorbable in blood and could be flushed away in normal vasculature within one minute, therefore the gaseous CO2 overflowing into normal vasculature caused no damage in normal liver tissue. At this time, gaseous CO2 delivery was stopped. Due to vapor lock, there was no blood flow in tumor vasculature and no nutrition and oxygen was delivery to tumor cells, which made it under starvation and hypoxia. Meanwhile also due to the vapor lock, area of the CO2 bubbles contacting with blood was getting much smaller, which limits CO2 absorbability and prolongs CO2 gas staying within tumor vasculature. […] Under X-ray fluoroscopy, the tumor looked like a balloon filled with gas (FIG. 9). Thirty minutes after injection of CO2 about half of the gas still remained in the tumor (FIG. 10).

uterine fibroids = assay: Blood supply fluctuation therapy with gaseous mixture of CO2 and nitric oxide in patients with uterine fibroids; assay type: in vivo, human
Description: Preparation of gaseous mixture of CO2 and Nitric Oxide: the preparation procedure was same as that of gaseous CO2 in example 1, except the gaseous material was not CO2, but the gaseous mixture of CO2 and Nitric Oxide (NO). The concentration of NO was present in an amount effective to prevent vasospasm and ischemia, 40 ppm here.
Selective catheterization and diagnostic Digital Subtraction Angiogrpahy (DSA) with Gaseous Mixture of CO2 and Nitric Oxide (NO): under monitoring of X-ray fluoroscope and using interventional technique of selective catheterization, a delivery catheter was inserted into the internal iliac artery in the patients with uterine fibroids. […]
Blood Supply Fluctuation Therapy (BSFT) with Gaseous Mixture of CO2 and Nitric Oxide (NO): gaseous mixture of CO2 and Nitric Oxide (NO) was injected slowly and intermittently by the delivery syringe through the delivery catheter into tumor vasculature at the rate of 1 ml/s and with 5 minutes interval each 20 ml injection. […] With the decreasing and stopping of the blood flow of tumor vasculature, the gaseous mixture injected through delivery catheter might overflows into the arteries supplying normal uterine wall that could be detected and monitored by X-ray fluoroscopy, DSA, CT or ultrasound imaging. […]

O=C=O [CO2, carbon dioxide]
CO2 bubbles in immature tumor vasculature, DSA imaging (liver cancer; human, in vivo): filled and accumulated
CO2 bubbles in normal liver tissue, DSA imaging (liver cancer; human, in vivo): no bubbles accumulated
damage in normal liver tissue (liver cancer; human, in vivo): no damage
discomfort felt by patients receiving the injection (liver cancer; human, in vivo): minor discomfort on liver area
time CO2 accumulates and stays in abnormal vasculature (liver cancer; human, in vivo): for hours, even for days
time to be flushed away in normal vasculature (liver cancer; human, in vivo): one
vapor lock in tumor vasculature (liver cancer; repeated 50 ml injections through catheter): produced
filling of liver tumor with CO2, X-ray (liver cancer; tumor 7 cm in diameter, total of 500 ml CO2, 3-5 ml/s, 3-5 minutes interval each 50 ml injection): fully filled
vapor lock in tumor vasculature, CT scan (uterine fibroids; 45 minutes after BSFT): produced
gas seen in normal uterine tissue, CT scan (uterine fibroids; human, in vivo): No gas
